# Reference: patent US7994127B2, “Treatment of rett syndrome” (Massachusetts Institute of Technology, priority 2007, dated 2011)
# “Also recorded” adds a separate entry of the source.
# Key:
# [1] = system: layer 5 pyramidal neurons in motor cortex of MeCP2 knockout mice; experiment: Golgi staining, dendritic spine density and morphology; assay type: in vivo, mouse
# BDNF = BDNF expression (mRNA micro-array, proBDNF staining) in V1 during monocular deprivation; assay type: in vivo, mouse; conditions: mice subjected to MD and treated; vs MD and control
# Experimental: (§1) A: Effects of (1-3)IGF-1 (GPE) treatment on the expression levels of BDNF at mRNA level. […] (1-3)IGF-1 treatment is able to increase expression though not to control levels. The RNA levels were obtained with the micro-array analysis described in Tropea et al., 2006. B: Double staining for NeuN (green) and proBDNF (red) antibody. […] Anti-pro BDNF and anti-NeuN were obtained from CHEMICON and used at a concentration of 1:500. The solutions and time of incubations are the following: preincubation in 5% BSA, 0.1% triton, 10% serum, PBS. Incubation with the primary antibodies was carried out at 4 degrees for 3 days in the following solution: 2% BSA, 5% serum, 0.1% triton, PBS. After washings in PBS secondary biotinylated (for pro-BDNF) or Alexa conjugated (for NeuN) antibodies (1:200) were incubated for 2 hours in the same solution of the primary antibodies. The pro-BDNF labeling was detected by adding extravidine tritc (Sigma—1:300). C: Effects of (1-3)IGF-1 (GPE) treatment on the mRNA expression levels of tPA. […] Anti-tPA was purchased from Oxford Biomedical Research and used at a concentration of 1:500. The conditions for incubation were the following: free floating sections were pre-incubated in blocking solution: 10% serum, 0.3% triton, PBS and then left overnight in the primary antibody mix: 1% serum, 0.3% triton, PBS, anti-tPA 1:500, anti Neu-N 1:500. […]
# [2] = system: visual cortex of adult MeCP2+/− mice; experiment: Ocular dominance plasticity after monocular deprivation, optical imaging of intrinsic signals; assay type: in vivo, mouse
# tPA = tPA expression (mRNA, tPA staining) during monocular deprivation; assay type: in vivo, mouse; conditions: mice subjected to MD and treated
# Experimental: as §1
# [3] = in vivo; cited from earlier work
# wild type young mice = conditions: Tropea et al., 2006; cited from earlier work
# MeCP2−/y mice = experiment: Heart rate measurements (real time cardiac pulse rate, tail clip sensor); assay type: in vivo, mouse; conditions: 8 week old MeCP2−/y mice, treated from P15 (6 weeks), non-anesthetized
# [4] = P28, knockout treated vs knockout and wild-type
smiles,measurement,setting,value
"NCC(=O)N1CCC[C@H]1C(=O)N[C@@H](CCC(=O)O)C(=O)O [(1-3)IGF-1, glycyl-L-prolyl-L-glutamic acid]",over-representation of thin (immature) spines (FIG. 2D),"[1]; P28, knockout treated vs knockout",not ameliorated by the treatment
same,% mushroom (mature) spines (FIG. 2D),[1]; [4],reduced in the knockout compared to wild-type and knockout treated with (1-3)IGF1
same,"dendritic spine density (spines per length of dendrite, FIG. 2C)",[1]; [4],spine densities more similar to wild-type values
same,average dendritic branch thickness (FIG. 2E),"[1]; P28, wild-type, knockout, knockout treated",did not vary
same,BDNF mRNA expression level in contralateral V1 (FIG. 8A),BDNF,"increase expression in animals subjected to MD, though not to control levels"
same,"BDNF protein expression, proBDNF staining (FIG. 8B)",BDNF,"increasing BDNF protein expression, though not to control levels"
same,maturation of cortical circuitry during ocular dominance plasticity (FIG. 9B),[2]; (1-3)IGF-1 as in Example 1,promoted to similar degrees
same,"ocular dominance plasticity (ODI shift after MD, FIG. 3C-D)","[2]; female MeCP2+/− mice P60 or more, MD 4 days, 0.02 mg/g body weight IP daily during MD",prevented the OD plasticity
same,"tPA protein expression level, tPA staining (FIG. 8D)",tPA,strongly increased
same,tPA mRNA expression (FIG. 8C),tPA; vs control and deprived animals,significantly up-regulated tPA mRNA expression relative to both control and deprived animals
same,crossing the blood-brain barrier,[3],capable of crossing the blood-brain barrier
same,OD plasticity,wild type young mice,abolish OD plasticity
same,"heart rate distribution / occurrence of irregular, lower heart rate (bradycardia, FIG. 4A)",MeCP2−/y mice,significantly reduced; also recorded: partial rescue of the KO phenotype
